Tested on: platelets
Experiment: PK/PD model of thrombocytopenia (modeled platelet kinetic profiles)
Set-up: species or system human
Conditions: regimen 1B (150 mg)
Description: Based on individual PK and platelet counts data overtime a PK/PD model was established.
PK model: 1 compartment with biphasic absorption.
PD model: Adjusted Friberg model for thrombocytopenia including PLT transfusions and effect on HDM201 on proliferative cells and regulations.
The platelet kinetic profiles shown in FIG. 5 are modeled based on the following doses as tested in each regimen (in order from top to bottom in FIG. 5): […]

Structure (SMILES): COc1ncc(-c2nc3c(n2C(C)C)[C@H](c2ccc(Cl)cc2)N(c2cc(Cl)cn(C)c2=O)C3=O)c(OC)n1 [HDM201, (S)-5-(5-Chloro-1-methyl-2-oxo-1,2-dihydro-pyridin-3-yl)-6-(4-chloro-phenyl)-2-(2,4-dimethoxy-pyrimidin-5-yl)-1-isopropyl-5,6-dihydro-1H-pyrrolo[3,4-d]imidazol-4-one]
- platelet kinetic profile, modeled, compared among regimens with single agent activity: best overall platelet kinetic profile

From patent US10966978B2, “Dose and regimen for HDM2-p53 interaction inhibitors” (Novartis AG, priority 2016, dated 2021)
